PubChem BioAssay AID1963984 (Molecular Pharmacology Branch, DTP, NCI, 2024)

Test system: 233499-124-R-J3-PDC spheroids with HUVEC/MSC, viability
Assay: Anticancer human tumor 233499-124-R-J3-PDC patient-derived colon adenocarcinoma cell line growth inhibition [PI3K]
Conditions: for IC50: curve of first compound; for viability, T/C: stronger effect = lower value
Description: Combinatorial screen of targeted agents with the PI3K inhibitors inavolisib, alpelisib, duvelisib, and copanlisib in multi-cell type tumor spheroids
A high-throughput screen of multi-cell type tumor spheroids was designed to identify active combinations of targeted small molecules and PI3K pathway inhibitors. Complex spheroids include a stromal component modeled by human endothelial cells (HUVEC) and fibroblasts modeled by human mesenchymal stem cells (MSCs). The concentration ranges selected for each drug and investigational agent were based upon clinically achievable concentrations if the clinical Cmax of the agent was known.
Compounds. The drugs and investigational agents: inavolisib (NSC800729), alpelisib (NSC765974), duvelisib (NSC772469), copanlisib (NSC816437), ipatasertib (NSC767898), afuresertib (NSC778305), talazoparib (NSC767125), sapanisertib (NSC764658), selumetinib (NSC741078), tovorafenib (DAY101, NSC766906), vemurafenib (NSC761431), ravoxertinib (NSC781343), sotorasib (NSC818433), MRTX1133 (NSC 836407), abemaciclib (NSC 768073), palbociclib (NSC758247), venetoclax (NSC 766270), SY5609 (NSC837396), enzalutamide (NSC755605), and darolutamide (NSC825331), were obtained from the National Cancer Institute (NCI) Developmental Therapeutics Program Chemical Repository. The FDA-approved anticancer drug set is available from the NCI Developmental Therapeutics Program. […] The stock solutions were prepared in dimethyl sulfoxide (DMSO, Sigma-Aldrich, St. Louis, MO, cat. D2650) at 800-fold the tested concentration and stored at -70 degrees C prior to their use. All drugs and investigational agents were tested over a range starting from a high concentration at or near the clinical Cmax and decreasing in half-log increments. If the clinical Cmax for an agent had not been determined, the highest concentration tested was 10 microM.
Cell Culture. All cells were maintained in an incubator at 37 degrees C and 5% CO2 with 95% humidity. The PDC lines were cultured according to standard operating procedures established by the NCI PDMR (https://pdmr.cancer.gov/sops/default.htm). All PDCs were thawed and cultured in Matrigel-coated flasks prepared with a working solution of 1X Ham's F-12 nutrient mix, without supplementation (Invitrogen, Waltham, MA, cat. 11765054), 100 U/mL penicillin-streptomycin (Invitrogen, cat. 15140122), and 2.5% Matrigel (Corning Inc., Corning, NY, cat. 354248) for the first three passages. The 354836-022-R-J1-PDC, 475296-252-R-J1-PDC, and 997726-040-R-J2-PDC lines were cultured in 6A media, which includes advanced DMEM/F-12 (Thermo Fisher Scientific, cat. 12634028), 10 mM HEPES (Thermo Fisher Scientific, cat. 15630080), 1X GlutaMAX supplement (Thermo Fisher Scientific, cat. 35050061), 0.1 mg/mL primocin (InvivoGen, San Diego, CA, cat. ant-pm-2), 10% defined fetal bovine serum, heat inactivated (HyClone Laboratories Inc., Logan, UT, cat. SH30070.03HI), 50% L-WRN conditioned media (ATCC, cat. CRL-3276), 1.25 mM N-Acetyl-L-cysteine (Sigma-Aldrich, cat. A9165), 10 mM nicotinamide (Sigma-Aldrich, cat. N0636), 1X B-27 supplement (Thermo Fisher Scientific, cat. 17504044), 1X N-2 supplement (Thermo Fisher Scientific, cat. 17502048), and 10 microM Y-27632 dihydrochloride (Tocris Bioscience, Bristol, United Kingdom, cat. 1254). The 624824-186-R-J2-PDC line was cultured in 6C/Colon 1B media, which includes all 6A media components plus 50 ng/mL human EGF recombinant protein (Thermo Fisher Scientific, cat. PHG0311). […]

[1] = second compound 0.00316 µM, first compound 0.0316 µM
[2] = second compound 0.00316 µM, first compound 0.1 µM
[3] = second compound 0.01 µM, first compound 0.0316 µM
[4] = second compound 0.01 µM, first compound 0.1 µM
[5] = second compound 0.0316 µM, first compound 0.0316 µM
[6] = second compound 0.0316 µM, first compound 0.1 µM
[7] = second compound 0.1 µM, first compound 0.0316 µM
[8] = second compound 0.1 µM, first compound 0.1 µM
[9] = second compound 0.316 µM, first compound 0.0316 µM
[10] = second compound 0.316 µM, first compound 0.1 µM
[11] = second compound 1 µM, first compound 0.0316 µM
[12] = second compound 1 µM, first compound 0.1 µM
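Further: spheroids exposed to agents for seven days before readout.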
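Wherever viability, T/C is given: percent viability relative to DMSO vehicle control taken as 100%.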

Q: With CC(=O)c1c(C)c2cnc(Nc3ccc(N4CCNCC4)cn3)nc2n(C2CCCC2)c1=O + CC(Nc1ccc2c(c1)OCCn1cc(N3C(=O)OCC3C(F)F)nc1-2)C(N)=O as the compound, how does the IC50 (second compound 0.00316 µM) read?
A: Its IC50 is > 100 nM.

Q: And the IC50 (second compound 0.01 µM)?
A: The IC50 was > 100 nM.

Q: And the IC50 (second compound 0.0316 µM)?
A: Its IC50 is > 100 nM.

Q: And the IC50 (second compound 0.1 µM)?
A: The IC50 was > 100 nM.

Q: What about the IC50 (second compound 0.316 µM) of the same compound?
A: Its IC50 is > 100 nM.

Q: What about the IC50 (second compound 1 µM) of the same compound?
A: The IC50 was > 100 nM.

Q: What about the viability, T/C (second compound 0.00316 µM, first compound 0.000316 µM) of the same compound?
A: Its viability, T/C is 97.3%.

Q: What about the viability, T/C (second compound 0.00316 µM, first compound 0.001 µM) of the same compound?
A: Its viability, T/C is 83.4%.

Q: What about the viability, T/C (second compound 0.00316 µM, first compound 0.00316 µM) of the same compound?
A: The viability, T/C was 95.7%.

Q: And the viability, T/C (second compound 0.00316 µM, first compound 0.01 µM)?
A: Its viability, T/C is 73.7%.

Q: And the viability, T/C [1]?
A: The viability, T/C was 87.8%.

Q: And the viability, T/C [2]?
A: Its viability, T/C is 74.2%.

Q: What about the viability, T/C (second compound 0.01 µM, first compound 0.000316 µM) of the same compound?
A: The viability, T/C was 86.4%.

Q: And the viability, T/C (second compound 0.01 µM, first compound 0.001 µM)?
A: The viability, T/C was 87.5%.

Q: And the viability, T/C (second compound 0.01 µM, first compound 0.00316 µM)?
A: The viability, T/C was 80.9%.

Q: And the viability, T/C (second compound 0.01 µM, first compound 0.01 µM)?
A: Its viability, T/C is 89.7%.

Q: And the viability, T/C [3]?
A: Its viability, T/C is 86%.

Q: And the viability, T/C [4]?
A: Its viability, T/C is 70.6%.

Q: What about the viability, T/C (second compound 0.0316 µM, first compound 0.000316 µM) of the same compound?
A: The viability, T/C was 88.8%.

Q: And the viability, T/C (second compound 0.0316 µM, first compound 0.001 µM)?
A: Its viability, T/C is 88.4%.

Q: And the viability, T/C (second compound 0.0316 µM, first compound 0.00316 µM)?
A: The viability, T/C was 76.7%.

Q: What about the viability, T/C (second compound 0.0316 µM, first compound 0.01 µM) of the same compound?
A: Its viability, T/C is 89%.

Q: And the viability, T/C [5]?
A: Its viability, T/C is 93.2%.

Q: What about the viability, T/C [6] of the same compound?
A: The viability, T/C was 71.2%.

Q: And the viability, T/C (second compound 0.1 µM, first compound 0.000316 µM)?
A: Its viability, T/C is 82.6%.

Q: What about the viability, T/C (second compound 0.1 µM, first compound 0.001 µM) of the same compound?
A: The viability, T/C was 84.4%.

Q: And the viability, T/C (second compound 0.1 µM, first compound 0.00316 µM)?
A: The viability, T/C was 81.2%.

Q: What about the viability, T/C (second compound 0.1 µM, first compound 0.01 µM) of the same compound?
A: Its viability, T/C is 101%.

Q: What about the viability, T/C [7] of the same compound?
A: Its viability, T/C is 90.2%.

Q: And the viability, T/C [8]?
A: The viability, T/C was 65.2%.

Q: And the viability, T/C (second compound 0.316 µM, first compound 0.000316 µM)?
A: The viability, T/C was 83%.

Q: What about the viability, T/C (second compound 0.316 µM, first compound 0.001 µM) of the same compound?
A: Its viability, T/C is 79.5%.

Q: And the viability, T/C (second compound 0.316 µM, first compound 0.00316 µM)?
A: Its viability, T/C is 76.9%.

Q: What about the viability, T/C (second compound 0.316 µM, first compound 0.01 µM) of the same compound?
A: Its viability, T/C is 67.2%.

Q: And the viability, T/C [9]?
A: The viability, T/C was 79.3%.

Q: What about the viability, T/C [10] of the same compound?
A: The viability, T/C was 59.6%.

Q: What about the viability, T/C (second compound 1 µM, first compound 0.000316 µM) of the same compound?
A: Its viability, T/C is 76.7%.

Q: And the viability, T/C (second compound 1 µM, first compound 0.001 µM)?
A: Its viability, T/C is 68.7%.

Q: And the viability, T/C (second compound 1 µM, first compound 0.00316 µM)?
A: Its viability, T/C is 50%.

Q: And the viability, T/C (second compound 1 µM, first compound 0.01 µM)?
A: Its viability, T/C is 55.3%.

Q: And the viability, T/C [11]?
A: Its viability, T/C is 60.1%.

Q: And the viability, T/C [12]?
A: Its viability, T/C is 48.9%.

Q: What does the source list for CNC(=O)c1ccc(N2C(=S)N(c3ccc(C#N)c(C(F)(F)F)c3)C(=O)C2(C)C)cc1F + CC(Nc1ccc2c(c1)OCCn1cc(N3C(=O)OCC3C(F)F)nc1-2)C(N)=O?
A: IC50 (second compound 0.00316 µM): 8070 nM; IC50 (second compound 0.01 µM): > 10000 nM; IC50 (second compound 0.0316 µM): > 10000 nM; IC50 (second compound 0.1 µM): > 10000 nM; IC50 (second compound 0.316 µM): > 10000 nM; IC50 (second compound 1 µM): 145 nM; viability, T/C [1]: 85.8%; viability, T/C [2]: 82.7%; viability, T/C (second compound 0.00316 µM, first compound 0.316 µM): 79.2%; viability, T/C (second compound 0.00316 µM, first compound 1 µM): 92%; viability, T/C (second compound 0.00316 µM, first compound 3.16 µM): 78.3%; viability, T/C (second compound 0.00316 µM, first compound 10 µM): 42.9%; viability, T/C [3]: 88.3%; viability, T/C [4]: 98.5%; viability, T/C (second compound 0.01 µM, first compound 0.316 µM): 95%; viability, T/C (second compound 0.01 µM, first compound 1 µM): 76.9%; viability, T/C (second compound 0.01 µM, first compound 3.16 µM): 71.2%; viability, T/C (second compound 0.01 µM, first compound 10 µM): 72.2%; viability, T/C [5]: 88.9%; viability, T/C [6]: 54.9%; viability, T/C (second compound 0.0316 µM, first compound 0.316 µM): 76%; viability, T/C (second compound 0.0316 µM, first compound 1 µM): 89.2%; viability, T/C (second compound 0.0316 µM, first compound 3.16 µM): 88.1%; viability, T/C (second compound 0.0316 µM, first compound 10 µM): 67.4%; viability, T/C [7]: 84.7%; viability, T/C [8]: 71.8%; viability, T/C (second compound 0.1 µM, first compound 0.316 µM): 94.4%; viability, T/C (second compound 0.1 µM, first compound 1 µM): 77.9%; viability, T/C (second compound 0.1 µM, first compound 3.16 µM): 69.5%; viability, T/C (second compound 0.1 µM, first compound 10 µM): 55.6%; viability, T/C [9]: 88.2%; viability, T/C [10]: 38%; viability, T/C (second compound 0.316 µM, first compound 0.316 µM): 71.2%; viability, T/C (second compound 0.316 µM, first compound 1 µM): 76.2%; viability, T/C (second compound 0.316 µM, first compound 3.16 µM): 59.1%; viability, T/C (second compound 0.316 µM, first compound 10 µM): 53.6%; viability, T/C [11]: 52.5%; viability, T/C [12]: 52.1%; viability, T/C (second compound 1 µM, first compound 0.316 µM): 42.8%; viability, T/C (second compound 1 µM, first compound 1 µM): 50.2%; viability, T/C (second compound 1 µM, first compound 3.16 µM): 43.7%; viability, T/C (second compound 1 µM, first compound 10 µM): 34.6%
